What was measured:
[1] = target: DGKalpha (hDGKalpha(1-735)-N-His) (Homo sapiens (Human), UniProt P23743); assay: In vitro DGK inhibition assay, ADP-Glo (in house), DGKalpha; assay type: biochemical; details: DLG liposomes, 25 μM ATP, 4 nM enzyme, 1 hour reaction
Procedure: (§1) DGK α and ζ kinases use ATP to phosphorylate the substrate 1,2-dilauroyl-sn-glycerol (DLG, incorporated in the liposomes). ATP is converted to ADP as a result of this enzymatic reaction.
(§2) After the kinase reaction, an ATP-depletion reagent is added to terminate the kinase reaction and deplete any remaining ATP, leaving only ADP. Second, a detection reagent is added to simultaneously convert ADP to ATP and allow the newly synthesized ATP to be converted to light using a coupled luciferase/luciferin reaction.
(§3) Purification of both enzymes was performed as previously described by Takahashi et al., PeerJ, 2018 (Takahashi, D.; Sakane, F. Expression and purification of human diacylglycerol kinase alpha from baculovirus-infected insect cells for structural studies. PeerJ 2018, 6, No. e5449).
(§4) A concentrated liposome solution was prepared in assay buffer without DTT and BSA: 2 mM of DLG in 21 mM of total liposome (2 mM DLG/8 mM PS/11 mM PC). The reaction mixtures contain the assay buffer with a final DLG concentration of 125 uM ATP concentrations of 25 μM (for DGKA assay) or 50 μM (for DGKZ assay). The reactions were started by addition of DGK α and ζ kinases at 4 nM and 2 nM final concentrations, respectively. After 1 hour reaction, the amount of ADP formed was detected with the ADP-Glo kinase assay (Promega) according to the manufacturer instructions. Compounds were added in 11-points dose response, starting at […], 1:3 dilutions, with a final DMSO concentration of 2%. The multidrop combi was used as a liquid handler and luminescence was read with 0.5 s by the envision reader (PE).

[2] = target: DGKzeta (hDGKzeta(1-928)-N-His) (Homo sapiens (Human), UniProt Q13574); assay: In vitro DGK inhibition assay, ADP-Glo (in house), DGKzeta; assay type: biochemical; details: DLG liposomes, 50 μM ATP, 2 nM enzyme, 1 hour reaction
DGKzeta (hDGKzeta(1-928)-N-His), sequence (Q13574 whole entry): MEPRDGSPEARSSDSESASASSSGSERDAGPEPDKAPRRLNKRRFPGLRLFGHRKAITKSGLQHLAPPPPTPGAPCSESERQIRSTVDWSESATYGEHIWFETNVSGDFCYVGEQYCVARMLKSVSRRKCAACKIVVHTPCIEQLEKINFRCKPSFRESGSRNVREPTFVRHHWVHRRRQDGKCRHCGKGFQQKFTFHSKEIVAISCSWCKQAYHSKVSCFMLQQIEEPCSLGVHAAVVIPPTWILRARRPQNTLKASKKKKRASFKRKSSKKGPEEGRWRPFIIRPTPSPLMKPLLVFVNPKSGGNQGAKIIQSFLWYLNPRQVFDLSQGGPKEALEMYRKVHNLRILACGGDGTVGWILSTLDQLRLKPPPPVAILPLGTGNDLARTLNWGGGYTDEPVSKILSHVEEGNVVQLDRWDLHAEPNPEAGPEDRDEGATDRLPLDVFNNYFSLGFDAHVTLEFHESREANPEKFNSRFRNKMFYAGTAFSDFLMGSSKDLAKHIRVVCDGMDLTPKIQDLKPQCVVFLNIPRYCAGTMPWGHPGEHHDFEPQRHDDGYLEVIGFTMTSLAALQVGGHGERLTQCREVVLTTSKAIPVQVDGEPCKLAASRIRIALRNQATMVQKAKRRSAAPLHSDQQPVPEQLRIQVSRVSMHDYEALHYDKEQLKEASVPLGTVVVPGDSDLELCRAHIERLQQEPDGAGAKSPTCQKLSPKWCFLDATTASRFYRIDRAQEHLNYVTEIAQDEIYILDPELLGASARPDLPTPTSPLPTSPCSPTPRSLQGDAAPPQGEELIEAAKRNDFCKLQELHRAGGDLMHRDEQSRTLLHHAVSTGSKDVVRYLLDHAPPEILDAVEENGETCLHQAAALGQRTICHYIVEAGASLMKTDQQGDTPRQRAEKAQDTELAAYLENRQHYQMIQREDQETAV
Procedure: as §1, §2, §3, §4

primary human T-cells [3] = assay: IL2 secretion measurements in CD3-stimulated T-cells; assay type: cell-based; details: CD3 condition; for Emax IL2 (% activation): 24 hours, 20 μM reference compound A1 = 100%; for EC50: IL2 secretion after 24 hours, read-out: Tcell IL2 CD3 EC50
Procedure: As readouts for T-cell activation, 1L2 secretion after 24 hours and proliferation after 5 days was measured. Increases in 1L2 secretion and proliferation upon compound treatment were assessed as the % of the maximum of reference compound A1. WO 2016/139181 discloses reference compound A1 as example 70. As a counter screen and to make sure that no unwanted TCR-independent activation was triggered, PBS conditions were run for all compounds.
Expanded primary human T-cells were thawed and cultured in RPMI 1640 (Gibco, #61870-010)+5% human serum (HS, Sigma, #H3667)+1 mM Sodium Pyruvate (Gibco, #11360-039)+50 μM 2-mercaptoethanol (Gibco, #31350-010) and 1× Pen-Strep (Life Technologies, #15140122) medium at density of 2 Mio/ml for 3 hours in 5% CO2, 37° C. and 95% humidity. For coating of plates, […] or PBS++ with CD3 antibody (concentration depending on donor and determined by CD3 titrations) was added 100 μl/well to Poly-D Lysine coated 96-well plates. Plates were sealed and incubated at room temperature for 3 hours on a table-top rocking platform. After incubation, plates were washed once with PBS−− and filled with 40 μl/well culture medium only. Compounds were then added (see next section) to medium only plates. After 3 hours of culturing the T-cells, cells were filtered through a cell strainer (Miltenyi Biotech, #130-041-407), counted again and concentration was adjusted to 1.25 Mio/ml.
Cells were then seeded 80 μl/well to the 40 μl/well including dispensed compounds according to plate layout. By adding cells, compounds were further diluted 1:3, and resulting in 100 k cells/120 μl/well. After 24 hours 40 μl of supernatant was collected carefully from the top while not disturbing the cells and transferred into a round bottom 96 well plate. Collected and frozen supernatant was used for detection of IL2 using the IL-2 Human ProQuantum Immunoassay Kit (Invitrogen) or using the Human IL-2 ELISA Kit (Thermo Fisher).
(§5) Compounds were added in a 5 or 6 pt dose response with the Tecan D300e Digital Dispenser, all conditions 3 times more concentrated than the end-concentration, since cells are added afterwards (80 μl cells to 40 μl prepared medium with treatment). The DR was starting at 20 μM or 10 μM final top concentration and a dilution factor of 3.333. The positive control was the reference compound A1 that was added in a dose response as well, additionally to 3 wells of only 20 μM representing the positive stimulator control. All wells were normalized with DMSO to a final concentration of 0.6% (0.2% end-concentration).
The immunoassay is done following the manufacturer's manual (Invitrogen, #A35603). Additional information: For the immunoassay, MicroAmp™ EnduraPlate™ Optical 384-Well plates are used. Frozen supernatant is thawed and centrifuged for 5 minutes at 1000×g, both steps at 4° C. After centrifugation, required sample amount is taken from the top, and in a separate LightCycler V-bottom plate (working plate) diluted with assay dilution buffer, dilution factor depending on the PBS or CD3 condition but at least 1:3. IL-2 standard and blanks are prepared in the same V-bottom plate, standard with a range of […] (extended version). After preparation, 5 μl of sample dilutions or standard/blanks are transferred to the optical 384-well plate (assay plate) and the 10 μl reaction protocol is being followed. For measurement, the QuantStudio 12K Flex system is used. Raw data is extracted and IL-2 concentrations are calculated with the Thermo Fisher online app (apps.thermofisher.com/apps/proquantum).
ELISA is done following the manufacturer's manual (Thermo Fisher Scientific, #88-7025-88). Additional information: For the ELISA Nunc MaxiSorp 96 well plates are used. Frozen supernatant is thawed and centrifuged for 5 minutes at 1000×g, both steps at 4° C. […]

primary human T-cells [4] = assay: T-cell proliferation assay (CellTiter-Glo); assay type: cell-based; details: CD3 condition; for Emax proliferation (% activation): 5 days, 20 μM reference compound A1 = 100%; for EC50: proliferation after 5 days, CellTiter-Glo, read-out: Tcell Proliferation CD3 EC50
Procedure: For coating of plates, PBS++ only or PBS++ with CD3 antibody (concentration depending on donor and determined by CD3 titrations) is added 100 μl/well to Poly-D Lysine coated 96-well plates. Plates are sealed and incubated at room temperature for 3 hours on a table-top rocking platform. After incubation, plates are washed once with PBS−− and filled with 40 μl/well culture medium only. Compounds are then added (see next section) to medium only plates. After 3 hours of culturing the T-cells, cells are filtered through a cell strainer (Miltenyi Biotech, #130-041-407), counted again and concentration is adjusted to 1.25 Mio/ml.
Cells are then seeded 80 μl/well to the 40 μl/well including dispensed compounds according to plate layout. By adding cells, compounds are further diluted 1:3, and resulting in 100 k cells/120 μl/well. After 48 hours 40 μl of supernatant is collected carefully from the top while not disturbing the cells. Cells are assessed for proliferation 5 days later by measuring […] using CellTiterGlo (Promega).
as §5, with “The DR was starting at 20 μM or 10 μM final top concentration and a dilution factor of 3.333.” left out
After 5 days, for detection of ATP which is directly proportional to the number of cells present per well, the CellTiter-Glo® 2.0 Reagent is used. After visual control for toxicity or precipitations of the tested compounds, the plates are equilibrated to room temperature for 45 minutes. CellTiter-Glo® 2.0 Reagent is equilibrated to room temperature as well. After equilibration, an equal amount of CellTiter-Glo reagent is added to the cells (80 μl/well) with an electronic multichannel pipette. Plates are placed on a rocking platform for 15 minutes at room temperature. After incubation, the bottom of the plates is sealed with backing tape. Luminescence is measured with PHERAstar FSX (interval time 0.5 sec, gain 3000, focal height 15 mm) and exported as CSV file for analysis in Genedata screener.
Calculations and Data Reporting CD3 and PBS plates were analysed separately in Genedata Screener using Roche Normalization PCT_POS_CTRL with DMSO set as Neutral Control and 20 μM of the reference compound A1 set as Stimulator Control/100%.
For CD3 conditions EC50 and Emax of the fitted sigmoidal curve were reported. If no curve could be fitted, the EC50 was reported as blank field and the Emax was based on individual data points. […] Compounds which activate unstimulated cells (see IL2 measurements) or compounds which negatively affected viability were flagged.

DGKalpha (hDGKalpha(1-735)-N-His), sequence (P23743 whole entry): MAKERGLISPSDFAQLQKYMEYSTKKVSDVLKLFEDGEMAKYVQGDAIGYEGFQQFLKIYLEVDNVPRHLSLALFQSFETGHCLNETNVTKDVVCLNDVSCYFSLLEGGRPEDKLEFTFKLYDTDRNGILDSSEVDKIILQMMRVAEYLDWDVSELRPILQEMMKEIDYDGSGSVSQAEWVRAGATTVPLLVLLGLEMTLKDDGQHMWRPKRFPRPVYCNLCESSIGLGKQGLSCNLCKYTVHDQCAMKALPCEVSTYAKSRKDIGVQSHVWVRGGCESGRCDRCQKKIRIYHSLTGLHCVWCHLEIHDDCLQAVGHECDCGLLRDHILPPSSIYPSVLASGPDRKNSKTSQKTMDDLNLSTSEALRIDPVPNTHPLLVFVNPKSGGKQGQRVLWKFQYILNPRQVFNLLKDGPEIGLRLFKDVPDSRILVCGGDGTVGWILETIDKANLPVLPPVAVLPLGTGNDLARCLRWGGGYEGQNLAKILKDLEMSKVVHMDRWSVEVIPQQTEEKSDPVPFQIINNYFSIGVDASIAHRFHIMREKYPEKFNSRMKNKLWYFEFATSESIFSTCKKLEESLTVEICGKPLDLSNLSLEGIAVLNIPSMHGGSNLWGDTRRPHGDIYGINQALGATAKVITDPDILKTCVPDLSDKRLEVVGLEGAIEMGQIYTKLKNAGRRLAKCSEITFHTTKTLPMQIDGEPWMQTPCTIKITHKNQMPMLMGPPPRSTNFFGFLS

Compound	IC50 [1] [µM]	IC50 [2] [µM]	Emax IL2 (% activation) (primary human T-cells [3])	EC50 (primary human T-cells [3]; Homo sapiens, T-cell) [nM]	Emax proliferation (% activation) (primary human T-cells [4])	EC50 (primary human T-cells [4]; Homo sapiens, T-cell, 120 h) [nM]	EC50 (primary human T-cells [3]) [nM]	EC50 (primary human T-cells [4]) [nM]
N[C@H]1CS(=O)(=O)c2cc(F)c(-c3nncc(N4CCC(F)(F)CC4)n3)cc2N(Cc2ccc(Cl)cc2)C1=O [Example 17, (3R)-3-amino-5-[(4-chlorophenyl)methyl]-7-[5-(4,4-difluoro-1-piperidyl)-1,2,4-triazin-3-yl]-8-fluoro-1,1-dioxo-2,3-dihydro-1λ6,5-benzothiazepin-4-one]	7.88	0.65	62	449	104	342		
COc1ccc(-c2ccc(CN3C(=O)[C@@H](N)CS(=O)(=O)c4cc(F)c(-c5cncc(Cl)c5)cc43)cc2)cc1 [Example 27, (3R)-3-amino-7-(5-chloro-3-pyridyl)-8-fluoro-5-[[4-(4-methoxyphenyl)phenyl]methyl]-1,1-dioxo-2,3-dihydro-1λ6,5-benzothiazepin-4-one]	41.2	6.5	243	997	111	308		
CC(C)(C)c1cc(-c2cc3c(cc2F)S(=O)(=O)C[C@H](N)C(=O)N3Cc2ccc(-c3ccc(C(F)(F)F)cn3)cc2)cnn1 [Example 32, (3R)-3-amino-7-(6-tert-butylpyridazin-4-yl)-8-fluoro-1,1-dioxo-5-[[4-[5-(trifluoromethyl)-2-pyridyl]phenyl]methyl]-2,3-dihydro-1λ6,5-benzothiazepin-4-one]	13	3.21	53	966	164	439		
(3R)-3-amino-5-(4-chlorobenzyl)-8-fluoro-1,1-diketo-7-[5-(trifluoromethoxy)-3-pyridyl]-2,3-dihydro-1λ6,5-benzothiazepin-4-one [Example 5]	> 62.5		100				604	319
CC(C)(C)c1cncc(-c2cc3c(cc2F)S(=O)(=O)C[C@H](N)C(=O)N3Cc2ccc(-c3noc(C(F)(F)F)n3)cc2)c1 [Example 22, (3R)-3-amino-7-(5-tert-butyl-3-pyridyl)-8-fluoro-1,1-diketo-5-[4-[5-(trifluoromethyl)-1,2,4-oxadiazol-3-yl]benzyl]-2,3-dihydro-1λ6,5-benzothiazepin-4-one]			458	811	228	92		
COc1cc(-c2cc3c(cc2F)S(=O)(=O)C[C@H](N)C(=O)N3Cc2ccc(Cl)cc2)cnn1 [Example 6, (3R)-3-amino-5-[(4-chlorophenyl)methyl]-8-fluoro-7-(6-methoxypyridazin-4-yl)-1,1-dioxo-2,3-dihydro-1λ6,5-benzothiazepin-4-one]			14	> 10000		1410		
CC(C)(C)c1ccnc(-c2cc3c(cc2F)S(=O)(=O)C[C@H](N)C(=O)N3Cc2ccc(Cl)cc2)c1 [Example 1, (3R)-3-amino-7-(4-tert-butyl-2-pyridyl)-5-[(4-chlorophenyl)methyl]-8-fluoro-1,1-dioxo-2,3-dihydro-1λ6,5-benzothiazepin-4-one]			56	7380		1720		
CC(C)(C)c1cc(-c2cc3c(cc2F)S(=O)(=O)C[C@H](N)C(=O)N3Cc2ccc(Cl)cc2)ncn1 [Example 4, (3R)-3-amino-7-(6-tert-butylpyrimidin-4-yl)-5-[(4-chlorophenyl)methyl]-8-fluoro-1,1-dioxo-2,3-dihydro-1λ6,5-benzothiazepin-4-one]			81	2240		408		

— patent US20250236617A1, “BICYCLIC TETRAHYDROTHIAZEPINE DERIVATIVES” (Hoffmann-La Roche Inc., priority 2022, published 2025)
